Publication PMC12443555, “Structural modifications to pregnane neurosteroids alter inhibition of LPS/Lipid A binding at the MD-2 activation site within the TLR4 signaling complex” (Frontiers in Immunology, 2025)

Biological target: T1, Myeloid Differentiation factor 2 (MD-2) (Homo sapiens, UniProt Q9Y6Y9)
T1 construct: gene LY96; Recombinant human MD-2 (R&D Systems 1787-MD-050/CF)
T1 sequence (Q9Y6Y9 19-160): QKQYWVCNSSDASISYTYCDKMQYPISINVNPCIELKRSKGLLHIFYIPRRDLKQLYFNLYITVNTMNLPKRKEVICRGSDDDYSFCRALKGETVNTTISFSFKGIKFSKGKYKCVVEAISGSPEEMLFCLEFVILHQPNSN
Assay: SPR competition against Lipid A ([…]) on immobilized MD-2
Type: binding
Details: read-out: Inhibition Constant (Ki)

SMILES | Ki [nM]
CC(=O)[C@H]1CC[C@H]2[C@@H]3CCC4=CC(=O)CC[C@]4(C)[C@H]3CC[C@]12C [progesterone] | 49.4
C[C@]12CC[C@@H](O)C[C@@H]1CC[C@@H]1[C@@H]2CC[C@]2(C)[C@@H](C(=O)CO)CC[C@@H]12 [3α,5α-THDOC] | 57.6
C[C@@]1(O)CC[C@H]2[C@H](CC[C@@H]3[C@@H]2CC[C@]2(C)[C@@H](C(=O)Cn4nccn4)CC[C@@H]32)C1 [SGE 516] | 61.3
